The IC50 is the concentration that gives 50% inhibition. High values mean weaker potency in that assay, low ones greater potency in that assay.

A short description of data set [1]: Solubility in water. It is filed as physicochemical.
A short description of data set [2]: Vapor sorption analysis (DVS), hygroscopicity. The class given is physicochemical.
Data set [3] in a line: Stability at 40° C. and 75% RH. The class given is physicochemical. The conditions noted are these: 30 days at 40° C. and 75% RH.
Data set [4] deals with T1, mTOR (Homo sapiens, UniProt P42345).
T1 construct: endogenous in cells; host or cells: MDA-MB-231 cells
The data set is described as follows: mTOR cell-based mechanistic assay: inhibition of phosphorylation of 4E-BP1 (T37/46) in MDA-MB-231 cells. The conditions noted are these: 3 h treatment. As to the method: MDA-MB-231 cells were plated in 96 well plates at 2×10^4 cells/well in 90 uL of Complete growth medium and incubated at 37° C. overnight in a CO2 incubator. […] Cell lysates' were transferred to a 96-well plate coated with 4E-BP1 antibodies to capture phospho-4E-BP1 (T37/46) and incubated overnight at 4° C. The amount of phospho-4E-BP1 in each well is further measured by incubating the wells with anti-rabbit phospho-4E-BP1 (T37/46) antibodies and a corresponding goat anti-rabbit IgG conjugated to HRP. The amount of HRP present in each well is measured by a chemiluminescence method, which corresponds to amount of phospho-4E-BP1 in each well. IC50 values were determined using a 6-point dose response curve.

Where a name gives a salt, the structure may show the parent alone. Read-outs that look alike come from different tables or passages of the source. A value given as a limit tells only on which side of the number the result lay.

Take `COc1cccc2cc(-c3nc([C@H]4CC[C@H](C(=O)O)CC4)n4ncnc(N)c34)[nH]c12` [Example 1, trans-4-[4-amino-5-(7-methoxy-1H-indol-2-yl)imidazo[5,1-f][1,2,4]triazin-7-yl]cyclohexane carboxylic acid tromethamine salt]: in data set [1], the solubility in water result is on record as “approximately 6 mg/mL”. The “hygroscopicity (DVS)” value in data set [2] (at 90-95% RH) is 2-4%. For the same molecule, the “stability (degradation)” value in data set [3] is reported as “no significant degradation”.

For the molecule `COc1cccc2cc(-c3nc([C@H]4CC[C@H](C(=O)O)CC4)n4ncnc(N)c34)[nH]c12` [Example 3, trans-4-[4-amino-5-(7-methoxy-1H-indol-2-yl)imidazo[5,1-f][1,2,4]triazin-7-yl]cyclohexanecarboxylic acid sodium salt], the solubility in water in data set [1] (sodium salt) is recorded as greater than 30 mg/mL.

With `COc1cccc2cc(-c3nc([C@H]4CC[C@H](C(=O)O)CC4)n4ncnc(N)c34)[nH]c12` [trans-4-[4-amino-5-(7-methoxy-1H-indol-2-yl)-imidazo[5,1-f][1,2,4]triazin-7-yl]cyclohexanecarboxylic acid], the IC50 in data set [4] was roughly 1000 nM. As for “trans-4-[4-amino-5-(7-methoxy-1H-indol-2-yl)imidazo[5,1-f][1,2,4]triazin-7-yl]cyclohexane carboxylic acid calcium salt [Example 2]”, the “hygroscopicity, weight gain (DVS)” value in data set [2] (from 0 to 95% RH) worked out at 35%.
